Measurements as given in PMC2785468, “Androgen Receptor Mutations Associated with Androgen Insensitivity Syndrome: A High Content Analysis Approach Leading to Personalized Medicine” (PLoS ONE, 2009).

Biological target: T1, AR-P766S (Homo sapiens, UniProt P10275, P767S)
T1 construct: expressed in transfected cells
T1 sequence (P10275 1-920 P767S): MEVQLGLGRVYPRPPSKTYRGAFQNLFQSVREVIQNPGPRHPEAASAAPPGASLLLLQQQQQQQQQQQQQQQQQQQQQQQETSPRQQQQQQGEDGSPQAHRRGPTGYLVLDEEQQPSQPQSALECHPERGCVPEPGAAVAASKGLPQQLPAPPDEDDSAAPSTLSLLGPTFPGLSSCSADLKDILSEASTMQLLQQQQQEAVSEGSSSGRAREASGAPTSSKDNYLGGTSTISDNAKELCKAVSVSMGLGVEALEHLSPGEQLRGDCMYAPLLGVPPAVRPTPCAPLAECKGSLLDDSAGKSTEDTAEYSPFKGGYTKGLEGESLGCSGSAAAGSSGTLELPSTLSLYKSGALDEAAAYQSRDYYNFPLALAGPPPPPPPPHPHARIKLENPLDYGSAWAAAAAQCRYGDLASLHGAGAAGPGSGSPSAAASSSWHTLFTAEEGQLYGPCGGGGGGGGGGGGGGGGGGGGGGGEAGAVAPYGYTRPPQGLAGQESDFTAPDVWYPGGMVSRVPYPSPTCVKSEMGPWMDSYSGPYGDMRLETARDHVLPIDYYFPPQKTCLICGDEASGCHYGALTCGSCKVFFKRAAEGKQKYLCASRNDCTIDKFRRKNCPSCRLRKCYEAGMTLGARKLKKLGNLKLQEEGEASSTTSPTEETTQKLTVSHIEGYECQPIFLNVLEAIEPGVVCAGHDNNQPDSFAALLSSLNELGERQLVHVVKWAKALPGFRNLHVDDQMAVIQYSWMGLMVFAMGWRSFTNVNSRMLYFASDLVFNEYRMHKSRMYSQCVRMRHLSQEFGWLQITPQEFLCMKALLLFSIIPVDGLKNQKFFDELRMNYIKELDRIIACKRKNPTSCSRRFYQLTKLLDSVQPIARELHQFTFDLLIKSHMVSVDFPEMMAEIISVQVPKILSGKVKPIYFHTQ
Type: cell-based
Conditions: HeLa P766S
Procedure: To determine the global effect of the various AIS mutations on AR signaling, each was analyzed using HCA. This technology allows simultaneous quantification of AR protein expression, nuclear translocation, subnuclear patterning, and transcriptional activity. The analysis was done in HeLa cell lines stably transfected with wild type or mutant ARs fused with green fluorescent protein, or using AR immunofluorescence in primary cultures of genital skin fibroblasts generated from foreskin biopsies of historical AIS patients, or of normal neonates undergoing circumcision at birth. To prevent the effects of receptor over-expression, stable HeLa cells were carefully selected to express AR levels similar to LNCaP as previously described. Prior to ligand treatment, HeLa cells were transfected with the pARR2PB-dsRED2skl reporter plasmid, consisting of the AR responsive promoter ARR2PB [31] driving expression of the red fluorescent protein reporter dsRED2skl engineered to target peroxisomes.
For studies utilizing HeLa GFP-AR cell lines, twenty-four hours before transfection with pARR2PB-dsRED2skl, cells were plated onto 100 mm plastic dishes in medium supplemented with 5% charcoal-stripped and dialyzed-FBS. Transient introduction of the pARR-2PB-dsRED2skl reporter construct was performed using 6.0 µg reporter plasmid and 6.0 µg carrier DNA (BlueScript, Stratagene, San Diego, CA) using Transfectin (Biorad) following standard protocols. After 8-hour incubation, DNA/lipid complexes were removed. Cells were then trypsinized and replated at 10,000 cells per well in Nunc poly-D-lysine treated 96-well optical glass bottom plates and incubated an additional 12 hours to allow for cell adhesion. […] Compound dilutions and final addition to multi-well plates were performed using a Beckman Biomek NX robotic platform to ensure repeatability from experiment to experiment. After incubation was complete, using the Biomek NX robot, plates were washed with PBS and fixed for 20 min at RT in 4% formaldehyde prepared in CSK buffer (80 mM potassium PIPES, pH 6.8, 5 mM EGTA, 2 mM MgCl2). After fixation, cells were briefly permeabilized (5 min) with 0.5% Triton-X and prepared for imaging by washing in PBS, aspirating the washed solution, and adding a 1 ng/ml DAPI solution to stain DNA and a generic protein stain (CellMask, Invitrogen) to facilitate cell and nuclear image segmentation. Cells were imaged in PBS.
Cells were imaged using the Cell Lab IC-100 Image Cytometer (IC-100; Beckman Coulter) platform that consists of 1) Nikon Eclipse TE2000-U Inverted Microscope (Nikon; Melville, NY); 2) Chroma 82000 triple band filter set (Chroma; Brattleboro, VT); 3) an imaging camera: Hamamatsu ORCA-ER Digital CCD camera (Hamamatsu; Bridgewater, NJ); and 4) a focusing camera: Photonics COHU Progressive scan camera (Photonics; Oxford, MA). […] In general, 49 to 64 images were captured per well for image analysis.
While our initial AR studies using HTM were based upon CytoShop (Beckman-Coulter), [15], [33], these approaches were refined in the current work with the more robust server-client Pipeline Pilot image analysis platform (Basic and Advanced Imagine Collections, Pipeline Pilot 7.5, Accelrys, San Diego). Initially, the background signal was removed from all images using plate- and channel-specific correction images, generated by the sum projection of >600 randomly selected images for each channel from the image set. This allows for a pixel-by-pixel background subtraction that compensates any consistent uneven background artifacts in the image set. Furthermore, users are able to customize the degree of background subtraction by applying a multiplier to each correction image, useful for identification of objects such as nuclei or cell borders. After background subtraction, nuclear masks were generated using a combination of non-linear least squares and watershed-from-markers image manipulations of the DAPI images (Fig. 1B).

C[C@@H]1CC2=CC(=O)CC[C@@H]2[C@H]2CC[C@@]3(C)[C@@H](CC[C@]3(C)O)[C@@H]21 [Mb, Mibolerone]
Nuclear Translocation, Max (% signal present in the nucleus): 78.9±1.5% | Hyperspeckling, Max (absolute numerical measurement): 785±30 | Transcriptional Activity, Max (pARR2PB-dsRED2skl reporter, absolute numerical measurement): 98±2.2
